Assay: Solubility in oil (sesame oil, benzyl benzoate), visual observation
Details: oil or lipid, thermodynamic from solid
Method: Each of the Example compounds was examined for the solubility in oil (sesame oil, benzyl benzoate).
For the specific gravity of an oil, the following values were applied. • sesame oil (specific gravity: 0.914-0.921) • benzyl benzoate (specific gravity: 1.123) • (Method)
Example compound is measured in a microtube and an oil (sesame oil, or, benzyl benzoate) in an amount to make the concentration 10 mg/0.1 ml is added. After stirring, the solubility is evaluated by visual observation. When the compound is not dissolved, the mixture is heated, and the solubility is evaluated after cooling.

O=C(OCN1C(=O)CCc2ccc(OCCCCN3CCN(c4cccc5sccc45)CC3)cc21)C1CCC1 [Example 127, cyclobutanecarboxylic acid 7-[4-(4-benzo[b]thiophen-4-ylpiperazin-1-yl)butoxy]-2-oxo-3,4-dihydro-2H-quinolin-1-ylmethyl ester]
solubility (benzyl benzoate): > 100 mg/mL

O=C(OCN1C(=O)CCc2ccc(OCCCCN3CCN(c4cccc5sccc45)CC3)cc21)c1ccc2occc2c1 [Example 128, benzofuran-5-carboxylic acid 7-[4-(4-benzo[b]thiophen-4-ylpiperazin-1-yl)butoxy]-2-oxo-3,4-dihydro-2H-quinolin-1-ylmethyl ester]
solubility (benzyl benzoate): > 100 mg/mL

CONC(=O)OCn1c(=O)ccc2ccc(OCCCCN3CCN(c4cccc5sccc45)CC3)cc21 [Example 129, N-methoxycarbamic acid (7-{4-[4-(benzo[b]thiophen-4-yl)piperazin-1-yl]butoxy}-2-oxo-2H-quinolin-1-yl)methyl]
solubility (benzyl benzoate): > 100 mg/mL

O=C(OCn1c(=O)ccc2ccc(OCCCCN3CCN(c4cccc5sccc45)CC3)cc21)C1CCOCC1 [Example 130, tetrahydropyran-4-carboxylic acid 7-[4-(4-benzo[b]thiophen-4-ylpiperazin-1-yl)butoxy]-2-oxo-2H-quinolin-1-ylmethyl ester]
solubility (benzyl benzoate): > 100 mg/mL

O=C(OCN1C(=O)CCc2ccc(OCCCCN3CCN(c4cccc5sccc45)CC3)cc21)c1cccs1 [Example 131, thiophene-2-carboxylic acid 7-[4-(4-benzo[b]thiophen-4-ylpiperazin-1-yl)butoxy]-2-oxo-3,4-dihydro-2H-quinolin-1-ylmethyl ester]
solubility (benzyl benzoate): > 100 mg/mL

O=C(OCN1C(=O)CCc2ccc(OCCCCN3CCN(c4cccc5sccc45)CC3)cc21)c1cccnc1 [Example 132, nicotinic acid 7-[4-(4-benzo[b]thiophen-4-ylpiperazin-1-yl)butoxy]-2-oxo-3,4-dihydro-2H-quinolin-1-ylmethyl ester]
solubility (benzyl benzoate): > 100 mg/mL

CCCCCCCCCCCCOC(=O)OCn1c(=O)ccc2ccc(OCCCCN3CCN(c4cccc5sccc45)CC3)cc21 [Example 134, carbonic acid 7-[4-(4-benzo[b]thiophen-4-ylpiperazin-1-yl)butoxy]-2-oxo-2H-quinolin-1-ylmethyl ester dodecyl ester]
solubility (benzyl benzoate): > 100 mg/mL | solubility (sesame oil): > 100 mg/mL

CCCCCCCCCCOC(=O)OCn1c(=O)ccc2ccc(OCCCCN3CCN(c4cccc5sccc45)CC3)cc21 [Example 135, carbonic acid 7-[4-(4-benzo[b]thiophen-4-ylpiperazin-1-yl)butoxy]-2-oxo-2H-quinolin-1-ylmethyl ester decyl ester]
solubility (benzyl benzoate): > 100 mg/mL | solubility (sesame oil): > 100 mg/mL

O=C(OCn1c(=O)ccc2ccc(OCCCCN3CCN(c4cccc5sccc45)CC3)cc21)C1CCC1 [Example 136, cyclobutanecarboxylic acid 7-[4-(4-benzo[b]thiophen-4-ylpiperazin-1-yl)butoxy]-2-oxo-2H-quinolin-1-ylmethyl ester]
solubility (benzyl benzoate): > 100 mg/mL

O=C(OCn1c(=O)ccc2ccc(OCCCCN3CCN(c4cccc5sccc45)CC3)cc21)c1ccc2occc2c1 [Example 137, benzofuran-5-carboxylic acid 7-[4-(4-benzo[b]thiophen-4-ylpiperazin-1-yl)butoxy]-2-oxo-2H-quinolin-1-ylmethyl ester]
solubility (benzyl benzoate): > 100 mg/mL

O=C(NCCC(F)(F)F)OCn1c(=O)ccc2ccc(OCCCCN3CCN(c4cccc5sccc45)CC3)cc21 [Example 139, N-(3,3,3-trifluoropropyl)carbamic acid 7-[4-(4-benzo[b]thiophen-4-ylpiperazin-1-yl)butoxy]-2-oxo-2H-quinolin-1-ylmethyl ester]
solubility (benzyl benzoate): > 100 mg/mL

O=C(OC/C=C/c1ccccc1)OCn1c(=O)ccc2ccc(OCCCCN3CCN(c4cccc5sccc45)CC3)cc21 [Example 140, carbonic acid 7-[4-(4-benzo[b]thiophen-4-ylpiperazin-1-yl)butoxy]-2-oxo-2H-quinolin-1-ylmethyl ester (E)-3-phenyl-allyl ester]
solubility (benzyl benzoate): > 100 mg/mL

O=C(OCn1c(=O)ccc2ccc(OCCCCN3CCN(c4cccc5sccc45)CC3)cc21)c1cccs1 [Example 141, thiophene-2-carboxylic acid 7-[4-(4-benzo[b]thiophen-4-ylpiperazin-1-yl)butoxy]-2-oxo-2H-quinolin-1-ylmethyl ester]
solubility (benzyl benzoate): > 100 mg/mL

CCCCCCCCCCOC(=O)OCN1C(=O)CCc2ccc(OCCCCN3CCN(c4cccc5sccc45)CC3)cc21 [Example 142, carbonic acid 7-[4-(4-benzo[b]thiophen-4-ylpiperazin-1-yl)butoxy]-2-oxo-3,4-dihydro-2H-quinolin-1-ylmethyl ester decyl ester]
solubility (benzyl benzoate): > 100 mg/mL | solubility (sesame oil): > 100 mg/mL

CCCCCCCCCCCCCCCCOC(=O)OCN1C(=O)CCc2ccc(OCCCCN3CCN(c4cccc5sccc45)CC3)cc21 [Example 144, carbonic acid 7-[4-(4-benzo[b]thiophen-4-ylpiperazin-1-yl)butoxy]-2-oxo-3,4-dihydro-2H-quinolin-1-ylmethyl ester hexadecyl ester]
solubility (benzyl benzoate): > 100 mg/mL | solubility (sesame oil): > 100 mg/mL

CCCCCCCOC(=O)OCN1C(=O)CCc2ccc(OCCCCN3CCN(c4cccc5sccc45)CC3)cc21 [Example 145, carbonic acid 7-[4-(4-benzo[b]thiophen-4-ylpiperazin-1-yl)butoxy]-2-oxo-3,4-dihydro-2H-quinolin-1-ylmethyl ester heptyl ester]
solubility (benzyl benzoate): > 100 mg/mL

O=C(OCn1c(=O)ccc2ccc(OCCCCN3CCN(c4cccc5sccc45)CC3)cc21)OC1CCCCC1 [Example 146, carbonic acid 7-[4-(4-benzo[b]thiophen-4-ylpiperazin-1-yl)butoxy]-2-oxo-2H-quinolin-1-ylmethyl ester cyclohexyl ester]
solubility (benzyl benzoate): > 100 mg/mL

O=C(OCN1C(=O)CCc2ccc(OCCCCN3CCN(c4cccc5sccc45)CC3)cc21)OCC(F)(F)F [Example 147, carbonic acid 7-[4-(4-benzo[b]thiophen-4-ylpiperazin-1-yl)butoxy]-2-oxo-3,4-dihydro-2H-quinolin-1-ylmethyl ester 2,2,2-trifluoro-ethyl ester]
solubility (benzyl benzoate): > 100 mg/mL

CC(C)(C)OC(=O)CC(=O)OCn1c(=O)ccc2ccc(OCCCCN3CCN(c4cccc5sccc45)CC3)cc21 [Example 148, malonic acid 7-[4-(4-benzo[b]thiophen-4-ylpiperazin-1-yl)butoxy]-2-oxo-2H-quinolin-1-ylmethyl ester tert-butyl ester]
solubility (benzyl benzoate): > 100 mg/mL

CCCCCCCCOC(=O)OCN1C(=O)CCc2ccc(OCCCCN3CCN(c4cccc5sccc45)CC3)cc21 [Example 149, carbonic acid 7-[4-(4-benzo[b]thiophen-4-ylpiperazin-1-yl)butoxy]-2-oxo-3,4-dihydro-2H-quinolin-1-ylmethyl ester octyl ester]
solubility (benzyl benzoate): > 100 mg/mL | solubility (sesame oil): > 100 mg/mL

O=C(OCN1C(=O)CCc2ccc(OCCCCN3CCN(c4cccc5sccc45)CC3)cc21)OC1CCCCC1 [Example 150, carbonic acid 7-[4-(4-benzo[b]thiophen-4-ylpiperazin-1-yl)butoxy]-2-oxo-3,4-dihydro-2H-quinolin-1-ylmethyl ester cyclohexyl ester]
solubility (benzyl benzoate): > 100 mg/mL | solubility (sesame oil): > 100 mg/mL

CCCCOC(=O)OCN1C(=O)CCc2ccc(OCCCCN3CCN(c4cccc5sccc45)CC3)cc21 [Example 151, carbonic acid 7-[4-(4-benzo[b]thiophen-4-ylpiperazin-1-yl)butoxy]-2-oxo-3,4-dihydro-2H-quinolin-1-ylmethyl ester butyl ester]
solubility (benzyl benzoate): > 100 mg/mL

CN(Cc1ccccn1)C(=O)OCn1c(=O)ccc2ccc(OCCCCN3CCN(c4cccc5sccc45)CC3)cc21 [Example 152, N-methyl-N-pyridin-2-ylmethylcarbamic acid 7-[4-(4-benzo[b]thiophen-4-ylpiperazin-1-yl)butoxy]-2-oxo-2H-quinolin-1-ylmethyl ester]
solubility (benzyl benzoate): > 100 mg/mL

O=C(OCn1c(=O)ccc2ccc(OCCCCN3CCN(c4cccc5sccc45)CC3)cc21)N1CCSCC1 [Example 153, thiomorpholine-4-carboxylic acid 7-[4-(4-benzo[b]thiophen-4-ylpiperazin-1-yl)butoxy]-2-oxo-2H-quinolin-1-ylmethyl ester]
solubility (benzyl benzoate): > 100 mg/mL

CCCCCCCCCCCC(=O)OCN1C(=O)CC(C)(C)c2ccc(OCCCCN3CCN(c4cccc5sccc45)CC3)cc21 [Example 154, dodecanoic acid 7-[4-(4-benzo[b]thiophen-4-ylpiperazin-1-yl)butoxy]-4,4-dimethyl-2-oxo-3,4-dihydro-2H-quinolin-1-ylmethyl ester]
solubility (benzyl benzoate): > 100 mg/mL | solubility (sesame oil): > 100 mg/mL

CCCCCCCCCCOC(=O)OCN1C(=O)CC(C)(C)c2ccc(OCCCCN3CCN(c4cccc5sccc45)CC3)cc21 [Example 156, carbonic acid 7-[4-(4-benzo[b]thiophen-4-ylpiperazin-1-yl)-butoxy]-4,4-dimethyl-2-oxo-3,4-dihydro-2H-quinolin-1-ylmethyl ester decyl ester]
solubility (benzyl benzoate): > 100 mg/mL | solubility (sesame oil): > 100 mg/mL

CCCCCCCCCCNC(=O)OCN1C(=O)CC(C)(C)c2ccc(OCCCCN3CCN(c4cccc5sccc45)CC3)cc21 [Example 158, N-decylcarbamic acid 7-[4-(4-benzo[b]thiophen-4-ylpiperazin-1-yl)-butoxy]-4,4-dimethyl-2-oxo-3,4-dihydro-2H-quinolin-1-ylmethyl ester]
solubility (benzyl benzoate): > 100 mg/mL | solubility (sesame oil): > 100 mg/mL

COC(=O)OCn1c(=O)ccc2ccc(OCCCCN3CCN(c4cccc5sccc45)CC3)cc21 [Example 163, carbonic acid 7-[4-(4-benzo[b]thiophen-4-ylpiperazin-1-yl)butoxy]-2-oxo-2H-quinolin-1-ylmethyl ester methyl ester]
solubility (benzyl benzoate): > 100 mg/mL

CCCOC(=O)OCn1c(=O)ccc2ccc(OCCCCN3CCN(c4cccc5sccc45)CC3)cc21 [Example 165, carbonic acid 7-[4-(4-benzo[b]thiophen-4-ylpiperazin-1-yl)butoxy]-2-oxo-2H-quinolin-1-ylmethyl ester propyl ester]
solubility (benzyl benzoate): > 100 mg/mL

CCCCOC(=O)OCn1c(=O)ccc2ccc(OCCCCN3CCN(c4cccc5sccc45)CC3)cc21 [Example 168, carbonic acid 7-[4-(4-benzo[b]thiophen-4-ylpiperazin-1-yl)butoxy]-2-oxo-2H-quinolin-1-ylmethyl ester butyl ester]
solubility (benzyl benzoate): > 100 mg/mL
